Source: US10183039B2, “Methods for the production of collagen IV” (Vanderbilt University, priority 2013, dated 2019)

T1: collagen IV NC1 hexamer (Mus musculus, UniProt P02463+P08122)
T1 sequence (P02463 1445-1669 limits assumed): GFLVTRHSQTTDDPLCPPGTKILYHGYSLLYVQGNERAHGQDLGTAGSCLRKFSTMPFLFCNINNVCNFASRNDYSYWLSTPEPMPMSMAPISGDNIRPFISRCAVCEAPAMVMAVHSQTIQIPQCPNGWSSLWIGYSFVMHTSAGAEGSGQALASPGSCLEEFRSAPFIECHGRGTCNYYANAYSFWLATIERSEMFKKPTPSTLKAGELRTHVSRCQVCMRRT
T1 sequence (P08122 1484-1707 limits assumed): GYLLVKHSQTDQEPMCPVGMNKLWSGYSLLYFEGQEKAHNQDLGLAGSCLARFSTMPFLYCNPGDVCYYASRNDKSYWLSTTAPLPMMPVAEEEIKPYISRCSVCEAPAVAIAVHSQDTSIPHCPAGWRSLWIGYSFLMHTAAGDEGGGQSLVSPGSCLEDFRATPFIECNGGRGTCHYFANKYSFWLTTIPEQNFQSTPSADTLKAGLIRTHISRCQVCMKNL


Columns and labels:
collagen IV NC1 hexamer [1] = target: T1, collagen IV NC1 hexamer; test: Hypohalous acid oxidation of purified uncrosslinked NC1 hexamer; details: for crosslinked dimeric subunits (percentage of dimeric subunit): 500 nM NC1 hexamer, 5 μM hypohalous acid, 30 min at 37° C. (FIG. 4A)
Procedure: (FIG. 4A) Five hundred nanomolar collagen IV NC1 hexamer (3 μM potential crosslinks) was incubated alone (control) or with 5 μM hypochlorous (HOCl) or hypobromous acid (HOBr) for 30 min at 37° C. […] (FIGS. 4B-D) 16 nM myeloperoxidase (MPO) (FIG. 4B), eosinophil peroxidase (EPO) (FIG. 4C) or lactoperoxidase (LPO) (FIG. 4D) were reacted with 500 nM NC1 hexamer (3 μM potential crosslinks) for varying time points in 1×PBS with or without 10 μM H2O2. In the case of LPO, all reactions proceeded for 60 min. Collagen IV-sulfilimine crosslink content was visualized after SDS-PAGE and Coomassie blue staining of the reactions. Each gel is representative of three independent experiments. PHG, phloroglucinol; MW, molecular weight.
FIGS. 9A-D. Chemical mechanism of sulfilimine formation within the NC1 hexamer. (FIG. 9A) Purified uncrosslinked NC1 hexamer (5 μM) was reacted for 5 minutes at 37° with the indicated amounts of hypohalous acids and analyzed by SDS-PAGE. […] Values represent mean±S.D. (n=3). (FIG. 7B) Uncrosslinked NC1 hexamer (1.3 μM) in Br-Free PBS was preoxidzed with indicated amounts of HOCl for 1 min at 37 C, followed by post-oxidation with the addition of 8 mol eq. HOBr (or HOCl as a control) which was reacted for an additional minute at 37° C., then quenched with 20 mM methionine. Gel is representative of two experiments (FIG. 9C) XIC analysis of the residual monomeric NC1 subunit following HOCl oxidation (10 mol eq) compared to input NC1 monomer after SDS-PAGE and in-gel trypsin digestion. ^16O addition to the methionine residues was confirmed by MS3 analysis. (FIG. 9D) Met93 oxidation pathway consistent with experimental data and the resultant enthalphic landscape for S═N bond formation within the NC1 hexamer.
(FIG. 15) Fifty micromolar of hypohalous oxidants were added to 5 μM uncrosslinked NC1 domains, and reacted for 5 minutes at 37° C. before quenching by adding L-methionine to 1 mM final concentration. […] Experiments were run in triplicate and analyzed by 12% non-reducing SDS-PAGE and ImageJ.
The efficiency of HOBr as a reagent was compared to other hypohalous acids, during a 5′ reaction with uncrosslinked hexamers containing 5 μM NC1 domains.
The inventors therefore tested the molar efficiency of oxidation of purified uncrosslinked NC1 hexamer with HOCl and HOBr (FIG. 9A). […] To test this, they pretreated uncrosslinked NC1 hexamer with varying concentrations of HOCl, then treated with HOBr. […] As an independent approach to testing the dead-end sulfoxide hypothesis, the inventors pretreated NC1 hexamer with escalating levels of H2O2, a reagent known to generate methionine sulfoxides (Liang et al., 2012). […] They next decided to directly visualize the peptide containing Met93, the S donor of the S═N bond, within the residual monomeric NC1 fraction after HOCl oxidation and compare its oxidation status to untreated NC1 hexamer.

[2] = HOBr versus HOCl, methionine to dehydromethionine; cited from earlier work
[3] = Peroxidase activity of media from transfected cells (tetramethylbenzidine colorimetric assay); assay type: biochemical; details: media of transiently transfected HEK293T cells
Procedure: FIGS. 5A-D—Peroxidasin uniquely crosslinks native collagen IV networks. (FIG. 5A) Experimental design of ‘overlay’ experiments. PFHR-9 cells were grown in the presence of phloroglucinol (PHG; 50 μM) to deposit uncrosslinked collagen IV (Col IV) networks. The cells were then removed, and the basement membrane was extracted with 4 M guanidine (Gdn) to inactivate endogenous peroxidasin. Cells stably transfected with human peroxidasin (PXDN) or untransfected HEK293 cells (WT HEK) were plated on top of the PFHR9 basement membrane, which was subsequently analyzed for collagen IV crosslink content. (FIG. 5B) Collagen IV-sulfilimine bond formation in the indicated experimental conditions as shown by stained SDS-PAGE gel. Two (WT HEK cells) or three (PXDN, with or without PHG) out of five independent experiments are shown. MW, molecular weight. (FIG. 5C) Coomassie blue-stained gel of collagen IVNC1 hexamers isolated from uncrosslinked PFHR-9 basement membrane overlaid with HEK293T cells transiently transfected with human peroxidasin cDNA, mouse myeloperoxidase cDNA (MPO), mouse lactoperoxidase cDNA (LPO) or empty vector (Mock). (FIG. 5D) Media from PXDN, MPO, LPO and mock-transfected cells were assayed for peroxidase activity using a tetramethylbenzidine-based colorimetric assay. Activity was expressed relative to peroxidasin (A650 of given peroxidase divided by A650 for peroxidasin). […]

collagen IV NC1 hexamer [4] = test: Purified peroxidases reacted with uncrosslinked NC1 hexamer and H2O2; assay type: biochemical, mouse; details: 16 nM enzyme, 500 nM NC1 hexamer, 10 μM H2O2, 1×PBS
Procedure: (§1) (FIG. 3A) SDS-PAGE of reactions consisting of 16 nM purified human peroxidasin (PXDN), 500 nM monomeric NC1 hexamer (3 μM potential crosslinks) and 10 μM H2O2 in 1×PBS. Control reactions without H2O2 or in the presence of the peroxidase inhibitor phloroglucinol (PHG; 50 μM) were also conducted. D represents crosslinked dimeric NC1 subunits, and M denotes uncrosslinked monomeric subunits. MW, molecular weight. (FIG. 3B) Coomassie blue-stained gel after SDS-PAGE of collagen IVNC1 hexamer is shown to illustrate relative amounts of sulfilimine-crosslinked dimeric (D) and uncrosslinked monomeric (M) subunits after incubation of uncrosslinked PFHR-9 basement membranes in varying buffer halide concentrations (Br— or Cl— as K+ salt) with or without 1 mM H2O2. (FIG. 3C) PXDN-mediated hypohalous acid (HOX) production expressed as nmol hypohalous acid generated per nmol enzyme per min, measured in 1×PBS plus 100 μM NaBr. Values represent mean±s.e.m. (n=3). (FIG. 3D) HOCl production measured directly in 1×PBS without added Br—. Values denote mean±s.e.m. (n=4). […] (FIG. 3E) HOX production, measured in nmol HOX generated per nmol enzyme per min for myeloperoxidase (MPO), eosinophil peroxidase (EPO) or LPO in 1×PBS plus 100 μM NaBr. Values represent mean±s.e.m. (n=3).
PHG, phloroglucinol; MW, molecular weight.
If peroxidasin uses hypohalous acids as intermediates to form sulfilimine bonds, these intermediates should recapitulate the reaction when directly added to purified, uncrosslinked collagen IV NC1 hexamer. […] Alternatively, other peroxidasesis provided to form reactive hypohalous acids.

[5] = Hypohalous acid production by peroxidases (taurine haloamine trapping); assay type: biochemical; details: 1×PBS plus 100 μM NaBr or without added Br—
Procedure: as §1
Hypohalous acids were trapped as stable taurine haloamines, which oxidize tetramethylbenzidine to yield a colorimetric measure of hypohalous acid concentration and production (Dypbukt et al., 2005).
Animal heme peroxidases, such as peroxidasin, myeloperoxidase, eosinophil peroxidase and lactoperoxidase, catalyze oxidative reactions using distinct halogenation and peroxidase cycles (Obinger, 2006). Both begin with hydrogen peroxide oxidation of the prosthetic heme iron to form an intermediate denoted compound I (Obinger, 2006). Compound I may oxidize halides into their respective hypohalous acids (or related oxidants in equilibrium), which may directly or indirectly halogenate susceptible moieties. Alternatively, compound I undergoes sequential reduction to form single electron-free radicals of energetically favorable substrates in the peroxidase cycle. Both pathways eventually regenerate reduced, native enzyme (Obinger, 2006). To determine whether peroxidasin forms sulfilimine bonds using a halogenation cycle, the inventors first tested whether peroxidasin crosslinks collagen IV in the absence of halides.

Row | Molecule | crosslinked dimeric subunits (percentage of dimeric subunit) (collagen IV NC1 hexamer [1]) | crosslinked dimeric subunits (percentage of dimeric subunit) (collagen IV NC1 hexamer [1]; listed as hypobromous acid) | dimer formation, molar efficiency of oxidation (collagen IV NC1 hexamer [1]; 5 μM NC1 hexamer, 5 minutes at 37° (FIG. 9A)) | efficiency versus other hypohalous acids in forming sulfilimine bonds (collagen IV NC1 hexamer [1]; 5 min reaction, 5 μM NC1 domains) | S═N bond formation as share of total Met93 oxidized (collagen IV NC1 hexamer [1]; oxidation event 1 (OE1), S—Cl or S—Br halosulfonium intermediate) [%] | effectiveness at forming a sulfilimine bond [2] | enzymatic activity relative to peroxidasin [3] | formation of sulfilimine crosslinks in NC1 hexamer (collagen IV NC1 hexamer [4]) | hypohalous acid formation [5]
1 | OBr [HOBr, hypobromous acid] | increased significantly | yielded crosslinked dimeric subunits | efficiently formed dimers even at parity with NC1 concentrations | superior to all other examined reagents | 56.1 | approximately twice as effective as HOCl |  |  | 
2 | myeloperoxidase: animal heme peroxidase used as comparator (protein, UniProt P05164 165-745, looked up) Myeloperoxidase: VTCPEQDKYRTITGMCNNRRSPTLGASNRAFVRWLPAEYEDGFSLPYGWTPGVKRNGFPVALARAVSNEIVRFPTDQLTPDQERSLMFMQWGQLLDHDLDFTPEPAARASFVTGVNCETSCVQQPPCFPLKIPPNDPRIKNQADCIPFFRSCPACPGSNITIRNQINALTSFVDASMVYGSEEPLARNLRNMSNQLGLLAVNQRFQDNGRALLPFDNLHDDPCLLTNRSARIPCFLAGDTRSSEMPELTSMHTLLLREHNRLATELKSLNPRWDGERLYQEARKIVGAMVQIITYRDYLPLVLGPTAMRKYLPTYRSYNDSVDPRIANVFTNAFRYGHTLIQPFMFRLDNRYQPMEPNPRVPLSRVFFASWRVVLEGGIDPILRGLMATPAKLNRQNQIAVDEIRERLFEQVMRIGLDLPALNMQRSRDHGLPGYNAWRRFCGLPQPETVGQLGTVLRNLKLARKLMEQYGTPNNIDIWMGGVSEPLKRKGRVGPLLACIIGTQFRKLRDGDRFWWENEGVFSMQQRQALAQISLPRIICDNTGITTVSKNNIFMSNSYPRDFVNCSTLPALNLASWREAS |  |  |  |  |  |  | at least 30 fold | formed sulfilimine crosslinks in collagen IV | preferentially formed hypochlorous acid
